Biological target: T1, EGFR (epidermal growth factor receptor tyrosine kinase) (Homo sapiens, UniProt P00533)
T1 construct: EGFR cytoplasmic domain (EGFR-CD, amino acids 645–1186), (His)6-tagged
Test: EGFR-TK autophosphorylation assay, DELFIA/time-resolved fluorometry, recombinant enzyme
Format: biochemical
Settings: read-out: In Vitro EGFR Activity(nM) *

T1 sequence (P00533 669-1210): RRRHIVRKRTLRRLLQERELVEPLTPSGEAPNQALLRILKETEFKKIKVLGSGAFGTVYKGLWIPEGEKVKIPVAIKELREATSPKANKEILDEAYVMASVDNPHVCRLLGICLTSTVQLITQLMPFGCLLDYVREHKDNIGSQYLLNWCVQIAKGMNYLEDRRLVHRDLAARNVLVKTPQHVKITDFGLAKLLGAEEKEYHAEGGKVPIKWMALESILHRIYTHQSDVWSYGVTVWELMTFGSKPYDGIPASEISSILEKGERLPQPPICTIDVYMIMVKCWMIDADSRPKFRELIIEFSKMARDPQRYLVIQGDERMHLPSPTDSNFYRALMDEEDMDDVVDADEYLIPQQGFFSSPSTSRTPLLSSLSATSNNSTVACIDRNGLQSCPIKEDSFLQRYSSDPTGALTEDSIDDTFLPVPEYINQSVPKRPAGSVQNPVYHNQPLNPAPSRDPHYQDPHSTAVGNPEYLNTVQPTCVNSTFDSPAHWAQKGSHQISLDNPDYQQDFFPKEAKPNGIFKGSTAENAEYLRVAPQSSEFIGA

IC50: 98.6 nM
Compound: COC(=O)/C=C/c1ccc(O)cc1OC [compound 1, 7-hydroxy, 5-methoxy, methyl cinnamate]

— PMC7916669, “Chemical Constituent Profiling of Phyllostachys heterocycla var. Pubescens with Selective Cytotoxic Polar Fraction through EGFR Inhibition in HepG2 Cells” (Molecules, 2021)
